According to ChEMBL document CHEMBL1201862, “PubChem BioAssay data set” (2004):
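48-hour exposure; five concentrations; linearly interpolated endpoints. GI50: concentration for 50% inhibition of growth.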 The source made the active and inactive calls. Rule as the data show it: active = GI50 up to about 1.1 µM and inactive = higher.

Key:
Test in all cases: NCI-60 cell line screen, 48 h
[1] = system: IGROV-1
[2] = system: SF-295
[3] = system: DU-145
[4] = system: OVCAR-3
[5] = system: PC-3
[6] = system: UACC-62
[7] = system: SW-620
[8] = system: 786-0
[9] = system: SR
[10] = system: SNB-19
[11] = system: EKVX
[12] = system: SK-MEL-2
[13] = system: OVCAR-4
[14] = system: CAKI-1
[15] = system: SF-539
[16] = system: MCF7
[17] = system: LOX IMVI
[18] = system: OVCAR-5
[19] = system: BT-549
[20] = system: MDA-N
[21] = system: K562
[22] = system: NCI-H522
[23] = system: Hs-578T
[24] = system: OVCAR-8
[25] = system: RXF 393
[26] = system: UACC-257
[27] = system: SF-268
[28] = system: Malme-3M
[29] = system: HCT-116
[30] = system: HT-29
[31] = system: CCRF-CEM
[32] = system: T47D
[33] = system: SK-MEL-5
[34] = system: KM12
[35] = system: COLO 205
[36] = system: SN12C
[37] = system: MOLT-4
[38] = system: MDA-MB-435
[39] = system: UO-31
[40] = system: SK-MEL-28
[41] = system: SNB-75
[42] = system: NCI-H460
[43] = system: SK-OV-3
[44] = system: M14
[45] = system: A549
[46] = system: HOP-62
[47] = system: NCI/ADR-RES
[48] = system: TK-10
[49] = system: NCI-H226
[50] = system: HCT-15
[51] = system: RPMI-8226
[52] = system: MDA-MB-231
[53] = system: U-251
[54] = system: HL-60
[55] = system: A498
[56] = system: NCI-H23
[57] = system: HOP-92
[58] = system: ACHN
[59] = system: HCC 2998

What does the source list for `O=C(NNC(=O)c1ccccc1O)c1cccs1`?
GI50 [1]: 30.7 µM (inactive); GI50 [2]: 34.2 µM (inactive); GI50 [3]: > 100 µM (inactive); GI50 [4]: 23.7 µM (inactive); GI50 [5]: 47.5 µM (inactive); GI50 [6]: 49.8 µM (inactive); GI50 [7]: 61.5 µM (inactive); GI50 [8]: > 100 µM (inactive); GI50 [9]: 71 µM (inactive); GI50 [10]: > 100 µM (inactive); GI50 [11]: 34.4 µM (inactive); GI50 [12]: > 100 µM (inactive); GI50 [13]: > 100 µM (inactive); GI50 [14]: 79.4 µM (inactive); GI50 [15]: > 100 µM (inactive); GI50 [16]: 52.2 µM (inactive); GI50 [17]: 66.4 µM (inactive); GI50 [18]: 45 µM (inactive); GI50 [19]: > 100 µM (inactive); GI50 [20]: > 100 µM (inactive); GI50 [21]: > 100 µM (inactive); GI50 [22]: 3.51 µM (inactive); GI50 [23]: > 100 µM (inactive); GI50 [24]: 32.1 µM (inactive); GI50 [25]: > 100 µM (inactive); GI50 [26]: > 100 µM (inactive); GI50 [27]: 19 µM (inactive); GI50 [28]: 22.1 µM (inactive); GI50 [29]: 42.1 µM (inactive); GI50 [30]: 33.3 µM (inactive); GI50 [31]: > 100 µM (inactive); GI50 [32]: > 100 µM (inactive); GI50 [33]: > 100 µM (inactive); GI50 [34]: 39.4 µM (inactive); GI50 [35]: 46.5 µM (inactive); GI50 [36]: > 100 µM (inactive); GI50 [37]: 54.7 µM (inactive); GI50 [38]: > 100 µM (inactive); GI50 [39]: 50.1 µM (inactive); GI50 [40]: > 100 µM (inactive); GI50 [41]: 28.3 µM (inactive); GI50 [42]: 56.9 µM (inactive); GI50 [43]: 24.4 µM (inactive); GI50 [44]: 35.5 µM (inactive); GI50 [45]: 54.1 µM (inactive); GI50 [46]: 42.6 µM (inactive); GI50 [47]: 27.8 µM (inactive); GI50 [48]: > 100 µM (inactive); GI50 [49]: 5.79 µM (inactive); GI50 [50]: 47.8 µM; GI50 [51]: > 100 µM (inactive); GI50 [52]: 78.2 µM (inactive); GI50 [53]: > 100 µM (inactive); GI50 [54]: 50 µM (inactive); GI50 [55]: > 100 µM (inactive)

For `Cc1nnc2n1N=C(c1cc(F)c(Cl)cc1Cl)/C(=C/c1ccc3c(c1)OCO3)S2`, which GI50 [1] is on record?
The GI50 was 50.7 µM (inactive).

What about the GI50 [2] of the same compound?
Its GI50 is 53.3 µM (inactive).

What about the GI50 [3] of the same compound?
The GI50 was 72.8 µM (inactive).

What about the GI50 [4] of the same compound?
Its GI50 is 34.4 µM (inactive).

And the GI50 [5]?
Its GI50 is 63.1 µM (inactive).

And the GI50 [6]?
The GI50 was 62.8 µM (inactive).

And the GI50 [7]?
Its GI50 is > 100 µM (inactive).

What about the GI50 [8] of the same compound?
The GI50 was 47.4 µM (inactive).

And the GI50 [10]?
The GI50 was > 100 µM (inactive).

What about the GI50 [11] of the same compound?
Its GI50 is 23.1 µM (inactive).

And the GI50 [56]?
The GI50 was 90.8 µM (inactive).

What about the GI50 [12] of the same compound?
Its GI50 is 44 µM (inactive).

And the GI50 [13]?
The GI50 was 51.6 µM (inactive).

What about the GI50 [14] of the same compound?
Its GI50 is 69.7 µM (inactive).

And the GI50 [15]?
The GI50 was > 100 µM (inactive).

And the GI50 [16]?
Its GI50 is 35.5 µM (inactive).

What about the GI50 [17] of the same compound?
The GI50 was 33.1 µM (inactive).

And the GI50 [18]?
The GI50 was 32.1 µM (inactive).

And the GI50 [19]?
The GI50 was > 100 µM (inactive).

And the GI50 [57]?
The GI50 was 65.8 µM (inactive).

What about the GI50 [20] of the same compound?
Its GI50 is 39.3 µM (inactive).

And the GI50 [21]?
Its GI50 is > 100 µM (inactive).

What about the GI50 [22] of the same compound?
The GI50 was 20.7 µM (inactive).

What about the GI50 [23] of the same compound?
Its GI50 is 71.6 µM (inactive).

And the GI50 [24]?
The GI50 was 65.3 µM (inactive).

What about the GI50 [25] of the same compound?
Its GI50 is 51.3 µM (inactive).

What about the GI50 [26] of the same compound?
Its GI50 is 71.1 µM (inactive).

And the GI50 [27]?
Its GI50 is 88.9 µM (inactive).

What about the GI50 [28] of the same compound?
Its GI50 is > 100 µM (inactive).

What about the GI50 [29] of the same compound?
The GI50 was 47.8 µM (inactive).

And the GI50 [30]?
The GI50 was 36.1 µM (inactive).

And the GI50 [31]?
The GI50 was 43 µM (inactive).

And the GI50 [32]?
Its GI50 is 70.6 µM (inactive).

What about the GI50 [58] of the same compound?
Its GI50 is 63.5 µM (inactive).

And the GI50 [33]?
Its GI50 is > 100 µM (inactive).

What about the GI50 [59] of the same compound?
Its GI50 is 48.4 µM (inactive).

What about the GI50 [34] of the same compound?
Its GI50 is > 100 µM (inactive).

And the GI50 [35]?
The GI50 was > 100 µM (inactive).

And the GI50 [36]?
The GI50 was 53.7 µM (inactive).

What about the GI50 [37] of the same compound?
Its GI50 is 38.1 µM (inactive).

And the GI50 [38]?
The GI50 was 45.9 µM (inactive).

What about the GI50 [39] of the same compound?
Its GI50 is > 100 µM (inactive).

What about the GI50 [40] of the same compound?
Its GI50 is > 100 µM (inactive).

And the GI50 [42]?
Its GI50 is > 100 µM (inactive).

What about the GI50 [43] of the same compound?
Its GI50 is > 100 µM (inactive).

What about the GI50 [44] of the same compound?
The GI50 was > 100 µM (inactive).

And the GI50 [45]?
The GI50 was > 100 µM (inactive).

What about the GI50 [46] of the same compound?
The GI50 was 37.1 µM (inactive).

And the GI50 [47]?
The GI50 was 69.2 µM (inactive).

What about the GI50 [48] of the same compound?
Its GI50 is > 100 µM (inactive).

And the GI50 [49]?
The GI50 was > 100 µM (inactive).

What about the GI50 [50] of the same compound?
Its GI50 is 52.5 µM.

And the GI50 [51]?
The GI50 was 43.6 µM (inactive).

What about the GI50 [52] of the same compound?
The GI50 was > 100 µM (inactive).

And the GI50 [53]?
The GI50 was 56.6 µM (inactive).

What about the GI50 [54] of the same compound?
The GI50 was 40.4 µM (inactive).

What about the GI50 [55] of the same compound?
Its GI50 is 45.5 µM (inactive).
